Data published in patent publication US12502374B2, “Composition for preventing, alleviating, or treating inflammatory disease containing isookanin or salt thereof as active ingredient” (BioSpectrum, Inc., priority 2020, dated 2025).

Assays:
PGE2 [1] = assay: UV-induced PGE2 secretion in human epidermal keratinocytes (ELISA); type: cell-based; details: 1, 5 and 10 ppm, UVB 20 mJ/cm^2, FIG. 6
Description: Human epidermal keratinocytes (HEKs) were seeded in a 24-well microplate at a density of about 2×10^5 cells per well, and cultured in an incubator for 24 hours at 37° C. under 5% CO2. Thereafter, the cells were treated with each of 1, 5, and 10 ppm of isookanin, and then irradiated with UV light (UVB 20 mJ/cm^2), and then the cell culture medium was collected. Next, the secretion level of PGE2 was measured using an ELISA kit. As a negative control (−), human keratinocytes not treated with isookanin and UV light (UVB) were used.

COX-2 promoter = assay: LPS-induced COX-2 promoter luciferase reporter in RAW 264.7 macrophages; type: cell-based, mouse; details: 1, 5 and 10 ppm, LPS 100 ng/mL, FIG. 4
Description: Mouse macrophages (RAW 264.7) were seeded in a 24-well microplate at a density of about 2×10^5 cells per well, and cultured in an incubator for 24 hours at 37° C. under 5% CO2. The RAW264.7 cells were transfected with the COX-2 promoter luciferase reporter plasmid, and then treated with 1, 5, and 10 ppm of isookanin, and then treated with LPS (100 ng/mL). After culturing, the cell culture was harvested. Subsequently, luciferase enzyme activity was measured using a microplate reader (Sunrise, Tecan, Switzerland). Mouse macrophages not treated with isookanin and LPS were used as a negative control (−).

HMEC-1 [2] = assay: PGE2-induced vascular endothelial cell proliferation (MTT assay); type: cell-based, human; details: 1 hour pretreatment; 20 μM PGE2, 48 hours; FIG. 8
Description: Human microvascular […] cells (HMEC-1, ATCC, USA) were cultured in MCDB131 medium (Thermo Fisher, USA) containing 10 ng/ml EGF, 1 μg/mL cortisol, 10 mM glutamine and 10% FBS, and then seeded in a 24-well plate at a density of 5×10^4 cells per well and cultured in an incubator for 24 hours at cultured at 37° C. under 5% CO2. After culturing, each well was pretreated with each concentration of isookanin for 1 hour, and then treated with 20 μM PGE2 and cultured again for 48 hours. After 48 hours of culturing, the degree of vascular cell proliferation was measured using MTT assay, and the results are shown in FIG. 8.

HMEC-1 [3] = assay: PGE2-induced vascular endothelial cell tube formation on Matrigel; type: cell-based, human; details: 10 ppm, 2 hours pretreatment; 20 μM PGE2, 24 hours; FIGS. 10 and 11
Description: Human vascular endothelial cells (HMEC-1) were seeded in a Matrigel-coated 24-well plate at a density of 1.2×10^5 cells per well, and each well was pretreated with 10 ppm of isookanin for 2 hours. Next, each well was treated with PGE2 at a concentration of 20 μM and incubated for 24 hours. As a negative control, 100 ng/ml of VEGF was used. After 24 hours of incubation, the degree of vascular cell tube formation was observed using a microscope, and the results were photographed with a microscope camera and analyzed with Image J, and are shown in FIGS. 10 and 11.

HMEC-1 [4] = assay: PGE2-induced vascular endothelial cell migration (scratch assay); type: cell-based, human; details: 2 hours pretreatment; 20 μM PGE2, 24 hours; FIG. 9
Description: Human vascular endothelial cells (HMEC-1) were seeded in a 12-well plate at a density of 2×10^5 cells per well and cultured in an incubator for 24 hours at 37° C. under 5% CO2. After the cells in each well were grown to 80% confluency, the central part of each well was scratched using a yellow pipette tip. Next, each well was pretreated with each concentration of isookanin for 2 hours and then treated with 20 μM PGE2 and incubated for 24 hours. As a negative control, 100 ng/ml of VEGF was used. After 24 hours of incubation, the degree of vascular cell migration was observed using a microscope, and the results were photographed with a microscope camera and shown in FIG. 9.

PGE2 [5] = assay: LPS-induced PGE2 secretion in RAW 264.7 macrophages (ELISA); type: cell-based, mouse; details: 1, 5 and 10 ppm, LPS 100 ng/mL, FIG. 7
Description: Mouse macrophages (RAW 264.7) were seeded in a 24-well microplate at a density of about 2×10^5 cells per well, and cultured in an incubator for 24 hours at 37° C. under 5% CO2. Thereafter, the cells were treated with each of 1, 5 and 10 ppm of isookanin, and then treated with LPS (100 ng/mL) and cultured, and then the cell culture medium was collected. Next, the secretion level of PGE2 was measured using an ELISA kit. As a negative control group (−), mouse macrophages not treated with isookanin and LPS were used.

TLR-2 = target: T1, TLR-2 (Homo sapiens, UniProt O60603); assay: Chitin-induced TLR-2 activation, HEK-Blue TLR2 SEAP reporter cells; type: cell-based; details: 1 hour pretreatment, then chitin for 12 hours; FIG. 3
T1 construct: host or cells: HEK-Blue TLR2 cell line
T1 sequence (O60603 21-784): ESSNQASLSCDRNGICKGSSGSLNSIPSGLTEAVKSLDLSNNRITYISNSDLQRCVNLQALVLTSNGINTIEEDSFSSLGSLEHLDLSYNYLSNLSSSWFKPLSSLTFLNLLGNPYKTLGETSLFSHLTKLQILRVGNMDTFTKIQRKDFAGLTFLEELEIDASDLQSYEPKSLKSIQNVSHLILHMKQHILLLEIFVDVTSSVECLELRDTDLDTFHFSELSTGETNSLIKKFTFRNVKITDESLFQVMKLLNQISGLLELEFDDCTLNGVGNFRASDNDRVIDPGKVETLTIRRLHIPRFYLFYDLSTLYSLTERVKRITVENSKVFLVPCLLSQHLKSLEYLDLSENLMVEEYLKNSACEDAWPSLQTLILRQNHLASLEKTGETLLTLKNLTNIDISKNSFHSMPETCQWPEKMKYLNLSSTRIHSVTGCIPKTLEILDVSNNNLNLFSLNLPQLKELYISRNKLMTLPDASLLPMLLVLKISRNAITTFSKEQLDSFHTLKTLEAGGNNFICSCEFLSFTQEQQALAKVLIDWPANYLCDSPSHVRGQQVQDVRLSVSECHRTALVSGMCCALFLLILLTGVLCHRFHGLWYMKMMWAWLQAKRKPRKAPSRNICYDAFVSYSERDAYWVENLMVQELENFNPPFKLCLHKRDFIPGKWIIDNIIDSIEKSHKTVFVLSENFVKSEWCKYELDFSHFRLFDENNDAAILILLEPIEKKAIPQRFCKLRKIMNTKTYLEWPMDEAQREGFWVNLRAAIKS
Description: The anti-inflammatory effect of isookanin by inhibition of TLR-2 activation was measured. The HEK-Blue™ TLR2 cell line (InvivoGen, USA) co-transfected with TLR-2 and SEAP (secreted embryonic alkaline phosphatase) reporter genes was used. The SEAP reporter gene contains transcription factors NF-kB and AP-1 binding sites, and thus when NF-kB and AP-1 are activated by TLR-2 activation, SEAP is produced and secreted extracellularly. Specifically, the HEK-Blue™ TLR2 cell line was cultured in DMEM containing 10% FBS, and then seeded in a 48-well plate at a density of 1×10^5 cells per well, and pretreated with isookanin for 1 hour. Next, the cells were treated with chitin (Carbosynth, USA) and cultured again for 12 hours. Here, chitin is a component of demodex and is known as a major trigger of inflammatory rosacea. […] 20 μl of the culture supernatant of the cells cultured for 12 hours was taken, mixed with 80 μl of QUANTI-Blue™ (InvivoGen, USA), and then incubated at 37° C. for 1 hour. The degree of TLR-2 activation was measured by comparing the degree of color development caused by the reaction between Quanti-Blue and extracellularly secreted SEAP, and the results are shown in FIG. 3.

O=C1C[C@@H](c2ccc(O)c(O)c2)Oc2c1ccc(O)c2O [isookanin]
inhibition of UV-induced PGE2 expression (PGE2 [1]): inhibiting the expression of PGE2 in a concentration-dependent manner
inhibition of LPS-induced activation of COX-2 promoter (COX-2 promoter): inhibiting the LPS-induced activation of COX-2 promoter in a concentration-dependent manner
inhibition of human vascular endothelial cell proliferation induced by PGE2 (HMEC-1 [2]): effectively inhibiting human vascular endothelial cell proliferation induced by PGE2
inhibition of human vascular endothelial cell tube formation induced by PGE2 (HMEC-1 [3]): effectively inhibiting human vascular endothelial cell tube formation induced by PGE2
inhibition of human vascular endothelial cell migration induced by PGE2 (HMEC-1 [4]): effectively inhibiting human vascular endothelial cell migration induced by PGE2
inhibition of LPS-induced PGE2 expression (PGE2 [5]): inhibiting the LPS-induced expression of PGE2 in a concentration-dependent manner
inhibition of chitin-induced activation of TLR-2 signaling (TLR-2): effectively inhibiting the chitin-induced activation of TLR-2 signaling
